Laboratory results taken from US6737383B1, “Herbicidal oxadiazolidines” (priority 1999, dated 2004).

Assays:
cocklebur = assay: Test B pre/postemergence cocklebur; assay type: in vivo, Xanthium strumarium
Summary of the method: (§1)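 Response is a visual 0-to-10 score relative to untreated plants, where 0 means no effect and 10 means complete control, taken twelve to sixteen days after application. Treatments went onto soil at planting and onto foliage of 1- to 4-leaf plants, using a surfactant-containing non-phytotoxic solvent.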

surinam grass = assay: Test B pre/postemergence surinam grass; assay type: in vivo, Brachiaria decumbens
Summary of the method: as §1

bedstraw = assay: Test B pre/postemergence bedstraw; assay type: in vivo, Galium aparine
Summary of the method: as §1

giant foxtail = assay: Test B pre/postemergence giant foxtail; assay type: in vivo, Setaria faberii
Summary of the method: as §1

blackgrass = assay: Test B pre/postemergence blackgrass; assay type: in vivo, Alopecurus myosuroides
Summary of the method: as §1

smallflower flatsedge = assay: Test B flood test smallflower flatsedge; assay type: in vivo, Cyperus difformis
Summary of the method: (§2)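 Read-out is a visual response score from 0 (no effect) to 10 (complete control), assigned by comparison with untreated controls. Treatment was applied at the 2-leaf stage, and plants stayed in the greenhouse for twelve to sixteen days before scoring.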

rice = assay: Test B flood test rice; assay type: in vivo, Oryza sativa
Summary of the method: as §2

duck salad = assay: Test B flood test duck salad; assay type: in vivo, Heteranthera limosa
Summary of the method: as §2

wild oat = assay: Test B pre/postemergence wild oat; assay type: in vivo, Avena fatua
Summary of the method: as §1

bamyardgrass = assay: Test B flood test barnyardgrass; assay type: in vivo, Echinochloa crus-galli
Summary of the method: as §2

purple nutsedge = assay: Test B pre/postemergence purple nutsedge; assay type: in vivo, Cyperus rotundus
Summary of the method: as §1

crabgrass = assay: Test B pre/postemergence crabgrass; assay type: in vivo, Digitaria sanguinalis
Summary of the method: as §1

morningglory = assay: Test B pre/postemergence morningglory; assay type: in vivo, Ipomoea hederacea
Summary of the method: as §1

velvetleaf = assay: Test B pre/postemergence velvetleaf; assay type: in vivo, Abutilon theophrasti
Summary of the method: as §1

wheat = assay: Test B pre/postemergence wheat; assay type: in vivo, Triticum aestivum
Summary of the method: as §1

corn = assay: Test B pre/postemergence corn; assay type: in vivo, Zea mays
Summary of the method: as §1

[1] = Preemergence, Rate 62 g/ha, scale of 0 to 10 where 0 is no effect and 10 is complete control
[2] = Preemergence, Rate 125 g/ha, 0 is no effect, 10 is complete control
[3] = Preemergence, Rate 250 g/ha, scale 0 to 10, 0 is no effect, 10 is complete control
[4] = Preemergence, Rate 500 g/ha, scale 0 to 10 (0 no effect, 10 complete control)
[5] = Rate 62 g/ha, Postemergence, scale of 0 to 10 where 0 is no effect and 10 is complete control
[6] = Rate 125 g/ha, Postemergence, scale 0 to 10
[7] = Rate 500 g/ha, Postemergence, scale 0 to 10
[8] = Rate 62 g/ha, headed Pre-emergence (flood test species), scale 0 to 10 (0 no effect, 10 complete control)
[9] = Rate 125 g/ha, Pre-emergence, flood test species, scale 0 to 10 where 0 is no effect and 10 is complete control
[10] = Rate 250 g/ha, Pre-emergence, flood-test species, scale 0 to 10, 0 is no effect, 10 is complete control
[11] = Rate 500 g/ha, headed Pre-emergence (flood test species), scale 0 to 10 (0 no effect, 10 complete control)

Cc1ccccc1-n1c(=O)on(C(=O)N(c2ccc(-c3ccccc3)cc2)C(C)C)c1=O [Compound 187]
0: Cocklebur plant response rating (cocklebur; [1]) | Cocklebur plant response rating (0 to 10 scale) (cocklebur; [2]) | Cocklebur plant response rating (cocklebur; [3]) | Cocklebur plant response rating (cocklebur; [4]) | Cocklebur plant response rating (cocklebur; [5]) | Cocklebur plant response rating (cocklebur; [6]) | Plant response rating (0 to 10; 0 is no effect, 10 is complete control), Cocklebur (cocklebur; Rate 250 g/ha, Postemergence) | Cocklebur plant response rating (cocklebur; [7]) | B. signalgrass plant response rating (surinam grass; [1]) | B. signalgrass plant response rating (0 to 10 scale) (surinam grass; [2]) | B. signalgrass plant response rating (surinam grass; [3]) | B. signalgrass plant response rating (surinam grass; [4]) | B. signalgrass plant response rating (surinam grass; [5]) | B. signalgrass plant response rating (surinam grass; Rate 125 g/ha, Postemergence, scale 0 (no effect) to 10 (complete control)) | Plant response rating, B. signalgrass (surinam grass; Rate 250 g/ha, Postemergence, scale 0 to 10, 0 is no effect, 10 is complete control) | B. signalgrass plant response rating (surinam grass; Rate 500 g/ha, Postemergence, scale 0 to 10, 0 no effect, 10 complete control) | Bedstraw plant response rating (bedstraw; [1]) | Bedstraw plant response rating (0 to 10 scale) (bedstraw; [2]) | Bedstraw plant response rating (bedstraw; [3]) | Bedstraw plant response rating (bedstraw; [4]) | Bedstraw plant response rating (bedstraw; [5]) | Bedstraw plant response rating (bedstraw; [6]) | Plant response rating (0 to 10; 0 is no effect, 10 is complete control), Bedstraw (bedstraw; Rate 250 g/ha, Postemergence) | Bedstraw plant response rating (bedstraw; [7]) | Giant foxtail plant response rating (giant foxtail; [1]) | Giant foxtail plant response rating (0 to 10 scale) (giant foxtail; [2]) | Giant foxtail plant response rating (giant foxtail; [3]) | Giant foxtail plant response rating (giant foxtail; [4]) | Giant foxtail plant response rating (giant foxtail; [5]) | Giant foxtail plant response rating (giant foxtail; [6]) | Plant response rating (0 to 10; 0 is no effect, 10 is complete control), Giant foxtail (giant foxtail; Rate 250 g/ha, Postemergence) | Giant foxtail plant response rating (giant foxtail; [7]) | Blackgrass plant response rating (blackgrass; [1]) | Blackgrass plant response rating (0 to 10 scale) (blackgrass; [2]) | Blackgrass plant response rating (blackgrass; [3]) | Blackgrass plant response rating (blackgrass; [4]) | Blackgrass plant response rating (blackgrass; [5]) | Blackgrass plant response rating (blackgrass; [6]) | Plant response rating (0 to 10; 0 is no effect, 10 is complete control), Blackgrass (blackgrass; Rate 250 g/ha, Postemergence) | Blackgrass plant response rating (blackgrass; [7]) | S. Flatsedge plant response rating (smallflower flatsedge; [8]) | S. Flatsedge plant response rating (smallflower flatsedge; [9]) | S. Flatsedge plant response rating (smallflower flatsedge; [10]) | S. Flatsedge plant response rating (smallflower flatsedge; Rate 500 g/ha, Pre-emergence, flood test species, scale 0 to 10 (0 no effect, 10 complete control)) | Rice plant response rating (rice; [8]) | Rice plant response rating (rice; [9]) | Rice plant response rating (rice; [10]) | Plant response rating, Rice (rice; [11]) | Ducksalad plant response rating (duck salad; [8]) | Ducksalad plant response rating (duck salad; [9]) | Ducksalad plant response rating (duck salad; [10]) | Plant response rating, Ducksalad (duck salad; [11]) | Wild oats plant response rating (wild oat; [1]) | Wild oats plant response rating (wild oat; [3]) | Wild oats plant response rating (wild oat; [4]) | Wild oats plant response rating (wild oat; [5]) | Wild oats plant response rating (wild oat; [6]) | Plant response rating (0 to 10; 0 is no effect, 10 is complete control), Wild oats (wild oat; Rate 250 g/ha, Postemergence) | Barnyardgrass plant response rating (bamyardgrass; [8]) | Barnyardgrass plant response rating (bamyardgrass; [9]) | Barnyardgrass plant response rating (bamyardgrass; [10]) | Plant response rating, Barnyardgrass (bamyardgrass; [11]) | Nutsedge plant response rating (purple nutsedge; [1]) | Nutsedge plant response rating (0 to 10 scale) (purple nutsedge; [2]) | Nutsedge plant response rating (purple nutsedge; [3]) | Nutsedge plant response rating (purple nutsedge; [4]) | Nutsedge plant response rating (purple nutsedge; [5]) | Nutsedge plant response rating (purple nutsedge; [6]) | Plant response rating (0 to 10; 0 is no effect, 10 is complete control), Nutsedge (purple nutsedge; Rate 250 g/ha, Postemergence) | Nutsedge plant response rating (purple nutsedge; [7]) | Crabgrass plant response rating (crabgrass; [1]) | Crabgrass plant response rating (0 to 10 scale) (crabgrass; [2]) | Crabgrass plant response rating (crabgrass; [3]) | Crabgrass plant response rating (crabgrass; [4]) | Crabgrass plant response rating (crabgrass; [5]) | Crabgrass plant response rating (crabgrass; [6]) | Plant response rating (0 to 10; 0 is no effect, 10 is complete control), Crabgrass (crabgrass; Rate 250 g/ha, Postemergence) | Crabgrass plant response rating (crabgrass; [7]) | Morningglory plant response rating (morningglory; [1]) | Morningglory plant response rating (0 to 10 scale) (morningglory; [2]) | Morningglory plant response rating (morningglory; [3]) | Morningglory plant response rating (morningglory; [4]) | Morningglory plant response rating (morningglory; [5]) | Morningglory plant response rating (morningglory; [6]) | Plant response rating (0 to 10; 0 is no effect, 10 is complete control), Morningglory (morningglory; Rate 250 g/ha, Postemergence) | Morningglory plant response rating (morningglory; [7]) | Velvetleaf plant response rating (velvetleaf; [1]) | Velvetleaf plant response rating (velvetleaf; [3]) | Velvetleaf plant response rating (velvetleaf; [4]) | Velvetleaf plant response rating (velvetleaf; [5]) | Velvetleaf plant response rating (velvetleaf; [6]) | Plant response rating (0 to 10; 0 is no effect, 10 is complete control), Velvetleaf (velvetleaf; Rate 250 g/ha, Postemergence) | Wheat plant response rating (wheat; [1]) | Wheat plant response rating (wheat; [3]) | Wheat plant response rating (wheat; [4]) | Wheat plant response rating (wheat; [5]) | Wheat plant response rating (wheat; [6]) | Plant response rating (0 to 10; 0 is no effect, 10 is complete control), Wheat (wheat; Rate 250 g/ha, Postemergence) | Corn plant response rating (corn; [1]) | Corn plant response rating (0 to 10 scale) (corn; [2]) | Corn plant response rating (corn; [3]) | Corn plant response rating (corn; [4]) | Corn plant response rating (corn; [5]) | Corn plant response rating (corn; [6]) | Plant response rating (0 to 10; 0 is no effect, 10 is complete control), Corn (corn; Rate 250 g/ha, Postemergence) | Corn plant response rating (corn; [7])
